# Results published in EP4803513A1, “SUBSTITUTED QUINAZOLINE COMPOUND, PREPARATION METHOD THEREFOR, PHARMACEUTICAL COMBINATION THEREOF, AND USE THEREOF” (Hongyun Biotech Co., Ltd., priority 2023, dated 2025).
# System: BRK-BaF3 cells
# Experiment: Cell antiproliferative activity assay (CCK-8), BRK-BaF3
# Type: cell-based
# Conditions: 72 h, CCK-8, 3 days incubation
# Procedure: The activity of compounds against BRK kinase can be evaluated by their inhibition of the growth of the BRK kinase-stably transfected BaF3 cell line (BRK-BaF3) and wild-type BaF3 cells (WT-BaF3). […] The larger the ratio of the half-maximal growth inhibitory concentration (IC50) of a compound between WT-BaF3 and BRK-BaF3 cells, the better the selectivity of the compound.
# BRK-BaF3, WT-BaF3, WEHI cell line, and breast cancer cell line T47D were cultured using RPMI 1640 Basal medium or DMEM (Dulbecco's Modified Eagle Medium) (Shanghai Peiyuan Biotechnology, L220KJ), supplemented with 10% FBS (Gibco, REF 10099-141C) and 1% P/S (Shanghai Peiyuan Biotechnology, S110JV), in an incubator (Thermo 3020) at 37°C with 5% CO2. Cell viability was above 95%. Cells were passaged at a 3:1 ratio every 3-4 days. For WT-BaF3 cells, WEHI cells were first cultured, and their culture supernatant was filtered through a 0.22 µm filter. This supernatant was added at 10% to the regular culture medium to supplement IL-3 required for WT-BaF3 cell proliferation, which served as the culture medium for WT-BaF3. For testing, cells were first collected and counted, then prepared into a cell suspension at 100,000 cells/mL and plated at 100 µL per well. Drug concentrations started from 10 µM and were serially diluted 3:1. After incubation for 3 days, 20 µL of CCK-8 detection reagent (Targetmol C005) was added to each well. After incubation for 2-4 hours, OD450 was measured using a microplate reader (Varioskan LUX, Thermo Scientific). After subtracting the blank background, the curve was fitted and the IC50 was calculated using XLfit software.
row,Compound,IC50 [nM]
1,Cc1nn(CCO)cc1Nc1ncc2cc(-c3nccnc3Cl)cc(C(C)C)c2n1 [I-80],≤ 20
2,Cc1c[nH]c(=O)cc1-c1cc(C(C)C)c2nc(Nc3cn(CC(=O)N(C)C(C)C)nc3C)ncc2c1 [III-74],20 to 100
3,Cc1c[nH]c(=O)cc1-c1cc(C(C)C)c2nc(Nc3cn(CCN4CCOC[C@H]4C)nc3C)ncc2c1 [III-61],20 to 100
4,CC(=O)c1cc(-c2cc(C(C)C)c3nc(Nc4cn(CCO)nc4C)ncc3c2)ccn1 [I-18],≤ 20
5,Cc1c[nH]c(=O)cc1-c1cc(C(C)C)c2nc(Nc3cn(CCN4CCOC[C@@H]4C)nc3C)ncc2c1 [III-59],≤ 20
6,Cc1c[nH]c(=O)cc1-c1cc(C(C)C)c2nc(Nc3cn(CC(=O)NC4CCC4)nc3C)ncc2c1 [III-72],20 to 100
7,Cc1nn(CCO)cc1Nc1ncc2cc(-c3cncc(Cl)n3)cc(C(C)C)c2n1 [I-89],20 to 100
8,Cc1nn(CCO)cc1Nc1ncc2cc(-c3c[nH]c4ncccc34)cc(C(C)C)c2n1 [I-186],20 to 100
9,Cc1ccc(F)cc1-c1cc(C(C)C)c2nc(Nc3cn(CCO)nc3C)ncc2c1 [I-161],≤ 20
10,Cc1c[nH]c(=O)cc1-c1cc(C(C)C)c2nc(Nc3cn(C4CCN(C(C)C)C4)nc3C)ncc2c1 (centres unmarked) [III-39],≤ 20
11,Cc1nn(C)cc1Nc1ncc2cc(-c3cc[nH]c(=O)c3)cc(C(C)C)c2n1 [III-1],20 to 100
12,Cc1c[nH]c(=O)cc1-c1cc(C(C)C)c2nc(Nc3cnn(C4CCCN(C)CC4)c3C)ncc2c1 (centres unmarked) [III-36],≤ 20
13,Cc1c[nH]c(=O)cc1-c1cc(C(C)C)c2nc(Nc3cn(CCN4CCCC4)nc3C)ncc2c1 [III-64],≤ 20
14,Cc1ccc(C#N)cc1-c1cc(C(C)C)c2nc(Nc3cn(C4CCN(C)CC4)nc3C)ncc2c1 [III-131],≤ 20
15,C#CCN(C)C(=O)Cn1cc(Nc2ncc3cc(-c4cc(=O)[nH]cc4C)cc(C(C)C)c3n2)c(C)n1 [III-76],20 to 100
16,Cc1cnc(F)cc1-c1cc(C(C)C)c2nc(Nc3cnn(CCO)c3C)ncc2c1 [I-19],20 to 100
17,Cc1c[nH]c(=O)cc1-c1cc(C(C)C)c2nc(Nc3cn(C4COC4)nc3C)ncc2c1 [III-40],≤ 20
18,Cc1nn(CCO)cc1Nc1ncc2cc(-c3cccc(F)c3F)cc(C(C)C)c2n1 [I-156],≤ 20
19,Cc1c[nH]c(=O)cc1-c1cc(C(C)C)c2nc(Nc3cn(C(C)(C)CO)nc3C)ncc2c1 [I-173],20 to 100
20,COCCn1ncc(Nc2ncc3cc(-c4cc(=O)[nH]cc4C)cc(C(C)C)c3n2)c1C [III-43],≤ 20
21,COCCN(C)CCn1cc(Nc2ncc3cc(-c4cc(=O)[nH]cc4C)cc(C(C)C)c3n2)c(C)n1 [III-54],≤ 20
22,Cc1nn(CCO)cc1Nc1ncc2cc(-c3cccc4c3OCO4)cc(C3CC3)c2n1 [I-166],20 to 100
23,Cc1ccc2[nH]ncc2c1-c1cc(C(C)C)c2nc(Nc3cnn(CCO)c3C)ncc2c1 [I-183],≤ 20
24,Cc1nn(C)cc1Nc1ncc2cc(-c3cccnc3C(F)F)cc(C(C)C)c2n1 [III-123],≤ 20
25,Cc1c[nH]c(=O)cc1-c1cc(C2CC2)c2nc(Nc3cn(C)nc3C)ncc2c1 [III-80],≤ 20

row,Compound,IC50 [nM]
1,Cc1nn(CCO)cc1Nc1ncc2cc(-c3cccc4c3OCO4)cc(C(C)C)c2n1 [I-163],≤ 20
2,Cc1nn(CCO)cc1Nc1ncc2cc(-c3cc(F)ccc3F)cc(C(C)C)c2n1 [I-159],≤ 20
3,Cc1ccc2[nH]ncc2c1-c1cc(C(C)C)c2nc(Nc3cn(CCO)nc3C)ncc2c1 [I-182],≤ 20
4,COC[C@@H](C)n1cc(Nc2ncc3cc(-c4cc(=O)[nH]cc4C)cc(C(C)C)c3n2)c(C)n1 [III-45],≤ 20
5,COCCn1cc(Nc2ncc3cc(-c4cc(=O)[nH]cc4C)cc(C(C)C)c3n2)c(C)n1 [III-42],≤ 20
6,Cc1nccnc1-c1cc(C(C)C)c2nc(Nc3cnn(C)c3C)ncc2c1 [III-100],≤ 20
7,Cc1c[nH]c(=O)cc1-c1cc(C(C)C)c2nc(Nc3c[nH]nc3C)ncc2c1 [III-11],≤ 20
8,COc1nn(C2CCN(C(C)C)CC2)cc1Nc1ncc2cc(-c3cc(=O)[nH]cc3C)cc(C(C)C)c2n1 [III-32],≤ 20
9,Cc1c[nH]c(=O)cc1-c1cc(C(C)C)c2nc(Nc3cnn([C@@H]4C[C@H]5CC[C@@H](C4)N5C)c3C)ncc2c1 [III-26],≤ 20
10,Cc1c(Nc2ncc3cc(-c4cnccc4F)cc(C(C)C)c3n2)cnn1CCO [I-58],20 to 100
11,Cc1nn(CCO)cc1Nc1ncc2cc(-c3cccnc3C(F)F)cc(C(C)C)c2n1 [I-23],20 to 100
12,Cc1ncc(F)cc1-c1cc(C(C)C)c2nc(Nc3cnn(CCO)c3C)ncc2c1 [I-69],20 to 100
13,Cc1c[nH]c(=O)cc1-c1cc(C(C)C)c2nc(Nc3cnn(CCN4CCCC4)c3C)ncc2c1 [III-65],≤ 20
14,Cc1c[nH]c(=O)cc1-c1cc(C(C)C)c2nc(Nc3cnn(C)c3C)ncc2c1 [III-3],≤ 20
15,CCN(C)CCn1ncc(Nc2ncc3cc(-c4cc(=O)[nH]cc4C)cc(C(C)C)c3n2)c1C [III-52],≤ 20
16,Cc1c(Nc2ncc3cc(-c4c(F)ccnc4F)cc(C(C)C)c3n2)cnn1CCO [I-70],≤ 20
17,CCc1cc(-c2cc(=O)[nH]cc2C)cc2cnc(Nc3cn(C)nc3C)nc12 [III-84],20 to 100
18,COc1nn(C2CCN(C)CC2)cc1Nc1ncc2cc(-c3cc(=O)[nH]cc3C)cc(C(C)C)c2n1 [III-31],≤ 20
19,Cc1c[nH]c(=O)cc1-c1cc(C(C)C)c2nc(Nc3cn(CCO)nc3C)ncc2c1 [I-172],≤ 20
20,Cc1c(Nc2ncc3cc(-c4cc(F)ccc4F)cc(C(C)C)c3n2)cnn1CCO [I-169],20 to 100
21,[2H]C([2H])([2H])n1ncc(Nc2ncc3cc(-c4cc(=O)[nH]cc4C)cc(C(C)C)c3n2)c1C [III-10],≤ 20
22,Cc1ccncc1-c1cc(C(C)C)c2nc(Nc3cn(C4CCN(C)CC4)nc3C)ncc2c1 [III-129],≤ 20
23,Cc1c[nH]c(=O)cc1-c1cc(C(C)C)c2nc(Nc3cn(CC(C)(C)O)nc3C)ncc2c1 [I-175],≤ 20
24,Cc1c[nH]c(=O)cc1-c1cc(C(C)C)c2nc(Nc3cn(C4CCN(C)CC4)nc3C)ncc2c1 [III-13],≤ 20
25,Cc1ccnc(C)c1-c1cc(C(C)C)c2nc(Nc3cnn(CCO)c3C)ncc2c1 [I-71],≤ 20

row,Compound,IC50 [nM]
1,Cc1ccc2[nH]ncc2c1-c1cc(C(C)C)c2nc(Nc3cn(C)nc3C)ncc2c1 [III-89],≤ 20
2,Cc1nn(CCO)cc1Nc1ncc2cc(-c3cccnn3)cc(C(C)C)c2n1 [I-115],20 to 100
3,Cc1c[nH]c(=O)cc1-c1cc(C(C)C)c2nc(Nc3cnn(C4CCN(C)CC4)c3C(F)(F)F)ncc2c1 [III-28],≤ 20
4,Cc1c[nH]c(=O)cc1-c1cc(C(C)C)c2nc(Nc3cnn(CCN4CCOC[C@H]4C)c3C)ncc2c1 [III-62],≤ 20
5,Cc1c[nH]c(=O)cc1-c1cc(C(C)C)c2nc(Nc3cnn(CCN4CCOC[C@@H]4C)c3C)ncc2c1 [III-60],≤ 20
6,Cc1ccc(F)cc1-c1cc(C(C)C)c2nc(Nc3cnn(CCO)c3C)ncc2c1 [I-171],≤ 20
7,Cc1ccc(C#N)nc1-c1cc(C(C)C)c2nc(Nc3cn(CCO)nc3C)ncc2c1 [I-5],≤ 20
8,Cc1c[nH]c(=O)cc1-c1cc(C(C)C)c2nc(Nc3cn(CCN(C)CC(C)(C)O)nc3C)ncc2c1 [III-56],≤ 20
9,Cc1c[nH]c(=O)cc1-c1cc(C(C)C)c2nc(Nc3cn(C4CCN(C)CC4)nc3C(F)(F)F)ncc2c1 [III-27],≤ 20
10,Cc1c[nH]c(=O)cc1-c1cc(C(C)C)c2nc(Nc3cn(C4CCCN(C)CC4)nc3C)ncc2c1 (centres unmarked) [III-35],≤ 20
11,Cc1c[nH]c(=O)cc1-c1cc(C(C)C)c2nc(Nc3cnn([C@@H](C)C(=O)N(C)C)c3C)ncc2c1 [III-49],20 to 100
12,Cc1c[nH]c(=O)cc1-c1cc(C(C)C)c2nc(Nc3cnn(CC(C)(C)O)c3C)ncc2c1 [I-180],≤ 20
13,COC[C@@H](C)n1ncc(Nc2ncc3cc(-c4cc(=O)[nH]cc4C)cc(C(C)C)c3n2)c1C [III-46],≤ 20
14,Cc1nn(CCO)cc1Nc1ncc2cc(-c3cncc(Cl)c3Cl)cc(C(C)C)c2n1 [I-38],≤ 20
15,Cc1cc2cn[nH]c2cc1-c1cc(C(C)C)c2nc(Nc3cn(CCO)nc3C)ncc2c1 [I-185],20 to 100
16,COc1nn(C)cc1Nc1ncc2cc(-c3cc(=O)[nH]cc3C)cc(C(C)C)c2n1 [III-6],20 to 100
17,Cc1c[nH]c(=O)cc1-c1cc(C(C)C)c2nc(Nc3cn(CC(=O)NCC(F)F)nc3C)ncc2c1 [III-71],20 to 100
18,Cc1ncnc(C)c1-c1cc(C(C)C)c2nc(Nc3cnn(CCO)c3C)ncc2c1 [I-145],20 to 100
19,Cc1c(F)cncc1-c1cc(C(C)C)c2nc(Nc3cnn(CCO)c3C)ncc2c1 [I-67],≤ 20
20,Cc1c[nH]c(=O)cc1-c1cc(C(C)C)c2nc(Nc3cnn(C(F)F)c3C)ncc2c1 [III-8],≤ 20
21,Cc1nn(CCO)cc1Nc1ncc2cc(-c3cncc(Br)c3Cl)cc(C(C)C)c2n1 [I-37],≤ 20
22,Cc1c[nH]c(=O)cc1-c1cc(C(C)C)c2nc(Nc3cn(-c4cncnc4)nc3C)ncc2c1 [III-34],20 to 100
23,COCCOCCn1cc(Nc2ncc3cc(-c4cc(=O)[nH]cc4C)cc(C(C)C)c3n2)c(C)n1 [III-44],20 to 100
24,Cc1nn(CCO)cc1Nc1ncc2cc(-c3cncc4ccccc34)cc(C(C)C)c2n1 [I-184],≤ 20
